In US20040152741A1, “Arylglycine derivatives and their use as glycine transport inhibitors” (NPS Allelix Corporation, priority 2002, published 2004):
pIC50: −log10 of the molar value.

molecular target: T1, GlyT-1 C (Homo sapiens, UniProt P48067); test: Assay of transport via GlyT-1: [3H]glycine uptake by stably transfected cells; assay type: cell-based; details: cells stably transfected with GlyT-1 C; 50 nM [3H]glycine, 30 minutes at 37° C.; read-out: GlyT1 uptake IC50
T1 construct: expressed in transfected cells; QT-6 quail fibroblast cells are called preferred
T1 sequence (P48067 1-706): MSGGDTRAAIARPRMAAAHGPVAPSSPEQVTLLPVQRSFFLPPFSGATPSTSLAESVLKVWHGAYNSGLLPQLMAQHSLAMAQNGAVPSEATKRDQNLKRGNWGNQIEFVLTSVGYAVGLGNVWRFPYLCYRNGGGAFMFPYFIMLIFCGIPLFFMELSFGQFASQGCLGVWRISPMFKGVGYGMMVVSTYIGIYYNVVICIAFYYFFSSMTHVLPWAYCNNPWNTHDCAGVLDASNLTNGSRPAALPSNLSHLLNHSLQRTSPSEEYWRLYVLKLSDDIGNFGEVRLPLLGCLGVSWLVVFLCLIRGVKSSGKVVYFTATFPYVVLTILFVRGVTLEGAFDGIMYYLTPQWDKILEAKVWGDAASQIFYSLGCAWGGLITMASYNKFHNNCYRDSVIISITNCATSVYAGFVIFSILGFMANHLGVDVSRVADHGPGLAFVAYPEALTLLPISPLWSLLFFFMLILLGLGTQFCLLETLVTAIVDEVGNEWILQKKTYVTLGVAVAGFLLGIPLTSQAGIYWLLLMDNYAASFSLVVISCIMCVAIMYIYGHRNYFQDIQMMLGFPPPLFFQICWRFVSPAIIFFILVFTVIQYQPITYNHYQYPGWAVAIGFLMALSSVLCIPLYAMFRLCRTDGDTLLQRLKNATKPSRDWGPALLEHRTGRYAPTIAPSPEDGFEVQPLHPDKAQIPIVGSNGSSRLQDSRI
Source text: For use in assaying for activity in inhibiting glycine transport, eukaryokic cells, preferably QT-6 cells derived from quail fibroblasts, have been transfected to express one of the three known variants of human GlyT-1, namely GlyT-1a, GlyT-1b or GlyT-1c, or human GlyT-2. The sequences of these GlyT-1 transporters are described in Kim et al., Molec. Pharm. 45: 608-617, 1994, excepting that the sequence encoding the extreme N-terminal of GlyT-1a was merely inferred from the corresponding rat-derived sequence. This N-terminal protein-encoding sequence has now been confirmed to correspond to that inferred by Kim et al. The sequence of the human GlyT-2 is described by Albert et al., U.S. Pat. No. 919,653 issued July 1999, which is incorporated herein by reference in its entirety. Suitable expression vectors include pRc/CMV (Invitrogen), Zap Express Vector (Stratagene Cloning Systems, LaJolla, Calif.; hereinafter “Stratagene”), pBk/CMV or pBk-RSV vectors (Stratagene), Bluescript II SK +/− Phagemid Vectors (Stratagene), LacSwitch (Stratagene), pMAM and pMAM neo (Clontech), among others. A suitable expression vector is capable of fostering expression of the included GlyT DNA in a suitable host cell, preferably a non-mammalian host cell, which can be eukaryotic, fungal, or prokaryotic. Such preferred host cells include amphibian, avian, fungal, insect, and reptilian cells.
This example illustrates a method for the measurement of glycine uptake by transfected cultured cells.
Cells stably transfected with GlyT-1 C (see Kim, et al., Molecular Pharmacology, 45, 1994:608-617) were washed twice with HEPES buffered saline (HBS). The cells were then incubated for 10 minutes at 37° C. with either (a) no potential competitor, (b) 10 mM non-radioactive glycine or (c) a concentration of a candidate drug. A range of concentrations of the candidate drug was used to generate data for calculating the concentration resulting in 50% of the effect (e.g., the IC50s, which are the concentrations of drug inhibiting glycine uptake by 50%). A solution was then added containing [^3H]glycine at a final concentration of 50 nM (17.5 Ci/mmol). The cells were then incubated with gentle shaking for another 30 minutes at 37° C., after which the reaction mixture was aspirated and washed three times with ice-cold HBS. The cells were lysed with scintillant and allowed to equilibrate. The radioactivity in the cells was determined using a scintillation counter. Data was compared between the same cells contacted or not contacted by a candidate agent, depending on the assay being conducted.

Compound | pIC50
COc1ccc([N+](=O)[O-])cc1NC(=O)N[C@@H](C(=O)Nc1ccc2c(c1)CCC2)c1ccccc1 [E29.1*] | 7.14
COc1ccc([N+](=O)[O-])cc1NC(=S)N[C@@H](C(=O)Nc1ccc(C)c(C)c1)c1ccccc1 [E33.1*, (R)-2-[3-(2-methoxy-5-nitro-phenyl)-thioureido]-N-(3,4-dimethylphenyl)-2-phenyl acetamide] | 7.02
COc1ccc([N+](=O)[O-])cc1NC(=O)NC(C(=O)Nc1cccc(C(F)(F)F)c1)c1ccccc1 (stereo not shown) [Experiment E31.2, 2-[3-(2-methoxy-5-nitro-phenyl)-ureido]-N-(3-trifluoromethylphenyl)-2-phenyl acetamide] | 6.69
COc1ccc([N+](=O)[O-])cc1NC(=S)NC(C(=O)Nc1ccc(C)c(C)c1)c1ccccc1 (stereo not shown) [Experiment E32.2, 2-[3-(2-methoxy-5-nitro-phenyl)-thioureido]-N-(3,4-dimethylphenyl)-2-phenyl acetamide] | 6.48
COc1ccc([N+](=O)[O-])cc1NC(=O)N[C@@H](C(=O)Nc1ccc(C)c(C)c1)c1ccccc1 [Experiment E32.5, (R)-2-[3-(2-methoxy-5-nitro-phenyl)-ureido]-N-(3,4-dimethylphenyl)-2-phenyl acetamide] | 7.59
COc1ccc([N+](=O)[O-])cc1NC(=O)NC(C(=O)Nc1ccc2c(c1)CCC2)c1ccsc1 (stereo not shown) [Experiment E42.1] | 6.94
COc1ccc([N+](=O)[O-])cc1NC(=S)NC(C(=O)Nc1ccc2c(c1)CCC2)c1ccsc1 (stereo not shown) [Experiment E42.2] | 6.88
